Measured values reported in ChEMBL document CHEMBL6083273, “Targeting Periplakin of Novel Benzenesulfonamides as Highly Selective Agonists for the Treatment of Vitiligo” (2024).
Activity calls are given as the source filed them. No cut-off for these calls is given here.

Key:
[1] = species on record: Danio rerio; test: Induction of melanogenesis in zebrafish treated for 24 hrs by absorbance based assay (reference value: 98.2 to 100.3 %); format: functional
[2] = species on record: Danio rerio; test: Induction of melanogenesis in zebrafish at 0.1 nM treated for 24 hrs by absorbance based assay; format: functional, organism-based
[3] = species on record: Danio rerio; test: Induction of melanogenesis in zebrafish at 40 uM treated for 24 hrs by absorbance based assay relative to control; format: functional
[4] = species on record: Danio rerio; test: Induction of melanogenesis in zebrafish treated for 24 hrs by absorbance based assay; format: functional, organism-based
[5] = species on record: Danio rerio; test: Effect on tryptophan metabolism in zebrafish embryo assessed as 3-HAA metabolite level at 10 uM by LC/MS analysis; format: functional
[6] = species on record: Danio rerio; test: Effect on tryptophan metabolism in zebrafish embryo assessed as skatole metabolite level at 10 uM by LC/MS analysis; format: functional
[7] = species on record: Danio rerio; test: Effect on tryptophan metabolism in zebrafish embryo assessed as Trp metabolite level at 10 uM by LC/MS analysis; format: functional
[8] = species on record: Danio rerio; test: Effect on tryptophan metabolism in zebrafish embryo assessed as AA metabolite level at 10 uM by LC/MS analysis; format: functional
[9] = species on record: Danio rerio; test: Effect on tryptophan metabolism in zebrafish embryo assessed as IAA metabolite level at 10 uM by LC/MS analysis; format: functional
[10] = species on record: Danio rerio; test: Effect on tryptophan metabolism in zebrafish embryo assessed as KYNA metabolite level at 10 uM by LC/MS analysis; format: functional
[11] = species on record: Danio rerio; test: Effect on tryptophan metabolism in zebrafish embryo assessed as 5-HTP metabolite level at 10 uM by LC/MS analysis; format: functional
[12] = species on record: Danio rerio; test: Effect on tryptophan metabolism in zebrafish embryo assessed as Xa metabolite level at 10 uM by LC/MS analysis; format: functional
[13] = species on record: Danio rerio; test: Effect on tryptophan metabolism in zebrafish embryo assessed as ICA metabolite level at 10 uM by LC/MS analysis; format: functional
[14] = species on record: Danio rerio; test: Effect on tryptophan metabolism in zebrafish embryo assessed as 3-HK metabolite level at 10 uM by LC/MS analysis; format: functional
[15] = species on record: Danio rerio; test: Effect on tryptophan metabolism in zebrafish embryo assessed as 5-HIAA metabolite level at 10 uM by LC/MS analysis; format: functional
[16] = species on record: Danio rerio; test: Effect on tryptophan metabolism in zebrafish embryo assessed as indole metabolite level at 10 uM by LC/MS analysis; format: functional
[17] = species on record: Danio rerio; test: Effect on tryptophan metabolism in zebrafish embryo assessed as LE metabolite level at 10 uM by LC/MS analysis; format: functional
[18] = species on record: Danio rerio; test: Effect on tryptophan metabolism in zebrafish embryo assessed as IAN metabolite level at 10 uM by LC/MS analysis; format: functional
[19] = species on record: Danio rerio; test: Effect on tryptophan metabolism in zebrafish embryo assessed as ILA metabolite level at 10 uM by LC/MS analysis; format: functional
[20] = species on record: Danio rerio; test: Effect on tryptophan metabolism in zebrafish embryo assessed as IPA metabolite level at 10 uM by LC/MS analysis; format: functional
[21] = species on record: Danio rerio; test: Effect on tryptophan metabolism in zebrafish embryo assessed as NAS metabolite level at 10 uM by LC/MS analysis; format: functional
[22] = species on record: Danio rerio; test: Effect on tryptophan metabolism in zebrafish embryo assessed as NA metabolite level at 10 uM by LC/MS analysis; format: functional
[23] = species on record: Danio rerio; test: Effect on tryptophan metabolism in zebrafish embryo assessed as IA metabolite level at 10 uM by LC/MS analysis; format: functional
[24] = species on record: Danio rerio; test: Induction of melanogenesis in zebrafish at 40 uM treated for 24 hrs by absorbance based assay; format: functional, organism-based

Compound | Activity [1] [%] | other results
C[C@H](Nc1nccc(NS(=O)(=O)c2cccc([N+](=O)[O-])c2)n1)c1ccc(C2CC2)cc1 | 149.56 | –
Cc1cc(-c2ccc([C@H](C)Nc3nccc(NS(=O)(=O)c4ccc5ccccc5c4)n3)cc2)ccc1F | 89.349 | –
Cc1ccc(CNc2nccc(NS(=O)(=O)c3cccc([N+](=O)[O-])c3)n2)cc1 | 148.37 | –
C=C1/C(=C\C=C2/CCC[C@]3(C)[C@@H]([C@H](C)/C=C/[C@@H](O)C4CC4)CC[C@@H]23)C[C@@H](O)C[C@@H]1O | – | Activity [2]: Active
Cc1cc(-c2ccc([C@H](C)Nc3nccc(NS(=O)(=O)c4ccccc4C)n3)cc2)ccc1F | 63.17 | –
Cc1cc(-c2ccc([C@H](C)Nc3nccc(NS(=O)(=O)c4ccccc4)n3)cc2)ccc1F | – | Emax at 40 µM [3]: 139%; Activity [4]: Dose-dependent-effect
O=[N+]([O-])c1cccc(S(=O)(=O)Nc2ccnc(NCc3ccc(F)cc3)n2)c1 | 115.42 | –
O=[N+]([O-])c1cccc(S(=O)(=O)Nc2ccnc(Nc3ccccc3)n2)c1 | 155.77 | –
C[C@H](Nc1nccc(NS(=O)(=O)c2cccc([N+](=O)[O-])c2)n1)c1ccccc1 | 99.105 | –
Cc1cc(-c2ccc([C@H](C)Nc3nccc(NS(=O)(=O)c4cccc(C(F)(F)F)c4)n3)cc2)ccc1F | 58.78 | –
C[C@H](Nc1nccc(NS(=O)(=O)c2cccc([N+](=O)[O-])c2)n1)c1ccc(-c2ccc(F)cc2)cc1 | 146.53 | –
O=[N+]([O-])c1cccc(S(=O)(=O)Nc2ccnc(NCc3ccccc3)n2)c1 | 107.18 | –
Cc1cc(-c2ccc([C@H](C)Nc3nccc(NS(=O)(=O)c4cc(C(F)(F)F)cc(C(F)(F)F)c4)n3)cc2)ccc1F | 114.22 | –
C[C@H](Nc1nccc(NS(=O)(=O)c2cccc([N+](=O)[O-])c2)n1)c1ccc([N+](=O)[O-])cc1 | 129.75 | –
COc1ccc(S(=O)(=O)Nc2ccnc(N[C@@H](C)c3ccc(-c4ccc(F)c(C)c4)cc3)n2)cc1 | 67.56 | –
C[C@H](Nc1nccc(NS(=O)(=O)c2cccc([N+](=O)[O-])c2)n1)c1ccc(-c2ccc3ccccc3c2)cc1 | 77.723 | –
Cc1ccc(S(=O)(=O)Nc2ccnc(N[C@@H](C)c3ccc(-c4ccc(F)c(C)c4)cc3)n2)cc1 | 135.69 | –
C[C@H](Nc1nccc(NS(=O)(=O)c2cccc([N+](=O)[O-])c2)n1)c1ccc(-c2ccccc2)cc1 | 106.72 | –
COc1ccc(CNc2nccc(NS(=O)(=O)c3cccc([N+](=O)[O-])c3)n2)cc1 | 132.54 | –
Cc1cc(-c2ccc([C@H](C)Nc3nccc(NS(=O)(=O)c4cc(F)cc(F)c4)n3)cc2)ccc1F | 81.815 | –
Cc1cc(-c2ccc([C@H](C)Nc3nccc(NS(=O)(=O)Cc4ccccc4)n3)cc2)ccc1F | 132.22 | –
O=[N+]([O-])c1cccc(S(=O)(=O)Nc2ccnc(NCc3ccc(C(F)(F)F)cc3)n2)c1 | 93.387 | –
C[C@H](Nc1nccc(NS(=O)(=O)c2cccc([N+](=O)[O-])c2)n1)c1ccc(-c2cccs2)cc1 | 94.688 | –
Cc1cc(-c2ccc([C@H](C)Nc3nccc(NS(=O)(=O)c4ccc(F)cc4)n3)cc2)ccc1F | 135.12 | Activity [5]: 1.15 nmol/kg; Activity [6]: 506.87 nmol/kg; Activity [7]: 234150.9 nmol/kg; Activity [8]: 13.62 nmol/kg; Activity [9]: 0.85 nmol/kg; Activity [10]: 1.12 nmol/kg; Activity [11]: 42.55 nmol/kg; Activity [12]: 468.35 nmol/kg; Activity [13]: 25.11 nmol/kg; Activity [14]: 109.36 nmol/kg; Activity [15]: 105.04 nmol/kg; Activity [16]: 754.01 nmol/kg; Activity [17]: 53.82 nmol/kg; Activity [18]: 16.03 nmol/kg; Activity [19]: 108.22 nmol/kg; Activity [20]: 22.24 nmol/kg; Activity [21]: 0.09 nmol/kg; Activity [22]: 2175.78 nmol/kg; Activity [23]: 21.42 nmol/kg
C[C@H](Nc1nccc(NS(=O)(=O)c2cccc([N+](=O)[O-])c2)n1)c1ccc(-c2ccc(F)c(COCCCNC(=O)CCCC[C@@H]3SC[C@@H]4NC(=O)N[C@@H]43)c2)cc1 | – | Activity [24]: Active
Cc1cccc(S(=O)(=O)Nc2ccnc(N[C@@H](C)c3ccc(-c4ccc(F)c(C)c4)cc3)n2)c1 | 46.585 | –
